Results from patent US11207320B2, “Compositions and methods for cancer expressing PDE3A or SLFN12” (The Broad Institute, Inc., priority 2015, dated 2021).
Where two headings read alike, the source gives them in different places.

How the values were obtained:
PDE3A = PDE3A (Homo sapiens, UniProt Q14432); experiment: Linker-affinity purification of molecular target of DNMDP and immunoblotting; type: binding; set-up: Immunoprecipitation of endogenous PDE3A in HeLa cells; endogenous in cells; host or cells: HeLa; conditions: HeLa cell lysate, competitor 10 μM, immunoblot for PDE3A
Chain of PDE3A (Q14432 whole entry): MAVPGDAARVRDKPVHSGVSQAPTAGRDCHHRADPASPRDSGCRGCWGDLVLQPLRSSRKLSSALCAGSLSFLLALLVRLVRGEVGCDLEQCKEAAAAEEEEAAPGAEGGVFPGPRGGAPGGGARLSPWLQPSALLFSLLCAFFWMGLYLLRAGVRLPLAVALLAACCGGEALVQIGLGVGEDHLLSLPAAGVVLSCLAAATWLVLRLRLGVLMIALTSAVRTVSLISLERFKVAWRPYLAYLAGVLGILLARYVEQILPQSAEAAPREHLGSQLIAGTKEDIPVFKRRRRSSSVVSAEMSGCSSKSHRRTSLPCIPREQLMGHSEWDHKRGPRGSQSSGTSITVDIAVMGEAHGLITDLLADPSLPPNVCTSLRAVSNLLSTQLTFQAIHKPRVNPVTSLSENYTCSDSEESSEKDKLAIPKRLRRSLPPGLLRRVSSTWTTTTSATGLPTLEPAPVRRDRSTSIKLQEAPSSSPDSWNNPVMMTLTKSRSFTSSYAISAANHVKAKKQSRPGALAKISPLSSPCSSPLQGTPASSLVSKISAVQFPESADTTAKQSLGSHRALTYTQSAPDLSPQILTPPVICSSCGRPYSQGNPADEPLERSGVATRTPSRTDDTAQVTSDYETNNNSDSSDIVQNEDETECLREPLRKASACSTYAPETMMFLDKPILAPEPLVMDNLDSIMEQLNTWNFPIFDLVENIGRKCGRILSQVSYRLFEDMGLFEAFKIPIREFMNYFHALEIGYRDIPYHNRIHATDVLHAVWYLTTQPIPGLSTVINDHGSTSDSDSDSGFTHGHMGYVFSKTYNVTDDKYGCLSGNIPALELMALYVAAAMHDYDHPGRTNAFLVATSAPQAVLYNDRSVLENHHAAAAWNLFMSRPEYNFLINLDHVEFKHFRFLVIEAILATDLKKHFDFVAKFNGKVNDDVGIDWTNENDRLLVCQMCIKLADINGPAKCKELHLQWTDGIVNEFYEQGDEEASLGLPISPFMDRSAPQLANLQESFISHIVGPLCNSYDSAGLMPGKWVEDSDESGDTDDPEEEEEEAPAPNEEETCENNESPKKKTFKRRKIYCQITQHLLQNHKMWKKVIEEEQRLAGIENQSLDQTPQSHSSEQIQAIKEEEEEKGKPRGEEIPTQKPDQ
Protocol: To identify the molecular target of DNMDP, an affinity purification was performed using an (R)-des-nitro-DNMDP solid-phase tethered linker analogue (FIG. 10A) incubated with HeLa cell lysate. […] It was competed for the molecular target by adding either an excess of trequinsin or separate enantiomers of DNMDP, where only the (R)-enantiomer was cytotoxic. […] Binding of PDE3A to the linker analogue was blocked by both trequinsin and (R)-DNMDP, but not by the non-cytotoxic enantiomer (S)-[…]. 9C). Thus both trequinsin and (R)-DNMDP prevented the binding of PDE3A to the tethered DNMDP analogue, and it was concluded that both molecules bind PDE3A directly. HeLa cells were washed with ice-cold PBS before lysed with NP-40 lysis buffer (150 mM NaCl, 10% glycerol, 50 mM Tris-Cl pH 8.0, 50 mM MgCl2, 1% NP-40) supplemented with EDTA-free protease inhibitors (Roche) and phosphatase inhibitor mixtures I and II (Calbiochem). […] Samples were washed three times with lysis buffer containing corresponding compound concentrations of 10 μM. Proteins bound to Affi-Gel 102 resin were reduced, denatured, and separated using Tris-Glycine gels (Novex) and transferred to nitrocellulose membranes using the iBlot transfer system (Novex). Membranes were incubated overnight at 4° C. with primary antibodies against PDE3A (1:1000, Bethyl). […]

PDE3 = conditions: Ruppert et al., Life Sci. 31, 2037-2043, 1982; cited from earlier work
HeLa cells [1] = type: cell-based; conditions: co-treated with DNMDP, 48 hours
Protocol: HeLa cells were co-treated with 30 nM DNMDP (the EC70 concentration) and 20 μM of each bioactive compound. Cell viability after 48-hour treatment was assessed by ATP consumption as described earlier.
1000 HeLa cells were plated in a 384-well plate in 40 μl of DMEM supplemented with 10% Fetal Bovine Serum and 1% Pen/Strep. 24 hours after plating, a compound-library of 1600 bioactive molecules (Pharmacon) was added at a concentration of 20 μM. In parallel to bioactive compound incubation, DNMDP was added to a final concentration of 30 nM and incubated for 48 hours. Cell viability was assessed as described in Compound library screening in NCI-H1734 and A549 cell lines.

HeLa cells [2] = experiment: PARP-cleavage immunoblotting; type: cell-based; conditions: 36 hours
Protocol: HeLa cells were treated with indicated concentration of DNMDP and staurosporine for 36 hours. HeLa cells were lysed and processed as described in Linker-affinity purification of molecular target of DNMDP and immunoblotting. Membranes were incubated with an antibody against PARP (1:1000, Cell Signaling #9532) and actin and subsequently imaged as described in Linker-affinity purification of molecular target of DNMDP and immunoblotting.

PDE3B = target: T1, PDE3B (Homo sapiens, UniProt Q13370); experiment: Phosphodiesterase inhibition reactions (Caliper panel); type: biochemical; conditions: 100 nM
T1 construct: Caliper
T1 sequence (Q13370 whole entry, species assumed): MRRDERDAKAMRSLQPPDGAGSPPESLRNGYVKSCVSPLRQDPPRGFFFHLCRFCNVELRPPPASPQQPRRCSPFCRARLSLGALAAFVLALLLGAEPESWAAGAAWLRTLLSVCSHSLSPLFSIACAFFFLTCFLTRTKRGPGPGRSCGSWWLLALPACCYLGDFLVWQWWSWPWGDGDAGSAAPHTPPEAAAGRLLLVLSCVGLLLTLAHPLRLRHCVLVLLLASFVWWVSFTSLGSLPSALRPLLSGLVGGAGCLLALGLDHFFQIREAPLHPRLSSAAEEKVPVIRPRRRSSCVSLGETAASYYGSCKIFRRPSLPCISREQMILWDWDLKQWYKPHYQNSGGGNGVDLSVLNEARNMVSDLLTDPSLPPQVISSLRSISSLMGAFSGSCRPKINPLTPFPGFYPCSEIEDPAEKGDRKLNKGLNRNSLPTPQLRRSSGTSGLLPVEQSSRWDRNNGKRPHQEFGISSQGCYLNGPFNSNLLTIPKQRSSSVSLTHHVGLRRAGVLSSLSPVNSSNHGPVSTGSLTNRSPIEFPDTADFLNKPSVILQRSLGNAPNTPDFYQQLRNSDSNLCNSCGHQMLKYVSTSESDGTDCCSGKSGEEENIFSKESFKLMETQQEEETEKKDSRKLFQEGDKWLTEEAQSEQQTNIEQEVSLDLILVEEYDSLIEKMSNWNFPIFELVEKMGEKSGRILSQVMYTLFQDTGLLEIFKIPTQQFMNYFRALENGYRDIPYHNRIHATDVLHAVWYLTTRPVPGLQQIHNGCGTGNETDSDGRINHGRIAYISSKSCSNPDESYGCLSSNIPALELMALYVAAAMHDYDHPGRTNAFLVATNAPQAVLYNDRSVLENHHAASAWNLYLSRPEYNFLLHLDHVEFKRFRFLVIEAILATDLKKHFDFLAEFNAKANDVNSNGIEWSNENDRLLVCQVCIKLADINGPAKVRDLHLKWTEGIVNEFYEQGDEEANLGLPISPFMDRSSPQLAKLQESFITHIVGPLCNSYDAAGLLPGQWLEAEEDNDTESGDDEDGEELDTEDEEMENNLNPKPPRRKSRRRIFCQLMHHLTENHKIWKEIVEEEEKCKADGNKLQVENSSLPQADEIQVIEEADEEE
Protocol: DNMDP concentration was 100 nM.

A549 cells [3] = experiment: Sensitization of DNMDP-resistant cell line by expression of SLFN12 or SLFN12 and PDE3A; type: cell-based; conditions: A549 expressing SLFN12
Description: FIG. 22 is a plot showing sensitization of a DNMDP-resistant cell line by expression of SLFN12 or expression of SFLN12 and PDE3A.
Adding PDE3A expression led to further sensitization.

HeLa cells [4] = experiment: Caspase activity in HeLa cells (Caspase-Glo); type: cell-based; conditions: DNMDP treatment 48 hours
Protocol: 1000 HeLa cells were plated in 384-well plate in 40 μl of corresponding growth media supplemented with 10% Fetal Bovine Serum. 24 hours after plating, indicated compounds were added at indicated concentrations and incubated for 48 hours. Caspase-Glo from Promega was added according to the manufacturers recommendations and luminescence was determined as described in Compound library screening in NCI-H1734 and A549 cell lines.

A549 cells [5] = experiment: Compound library screening and dose-response retest, cell viability (ATP content, CellTiter-Glo); type: cell-based; conditions: A549, 48 hours
Protocol: (§1) To identify anti-cancer compounds with cell-selective cytotoxic activity, an unbiased chemical screen was performed in two lung adenocarcinoma cell lines, A549 and NCI-H1734, both of which harbor oncogenic KRAS mutations and truncating STK11 mutations, and which were TP53 wild type and mutant (R273L), respectively. 1,924 compounds were screened from the Molecular Libraries Small-Molecule Repository validation set in the A549 and NCI-H1734 cell lines at a single concentration of 10 μM in 384-well format in duplicate. As a proxy for cellular viability, ATP content was measured after 48 hours of compound treatment.
(§2) 1500 NCI-H1734 or 1000 A549 cells were plated in a 384-well plate in 40 μl of RPMI supplemented with 10% Fetal Bovine Serum and 1% Pen/Strep. 24 hours after plating, a compound-library of 1924 small molecules was added at a concentration of 10 μM. Staurosporine was used a positive control for cytotoxicity at a concentration of 10 μM, and DMSO was used a negative control at a concentration of 1%. All compounds were incubated for 48 hours with indicated small molecules. […] Cell viability was assessed by adding 40 μl of a 25% CELLTITERGLO® (Promega) in PBS with a THERMO COMBI™ or multichannel-pipette and incubated for 10 minutes. The luminescence signal was read using a Perkin-Elmer EnVision. Viability percentage was calculated by normalizing to DMSO controls.

NCI-H1734 cells = experiment: as above; type: cell-based; conditions: NCI-H1734, 48 hours
Protocol: as §1, §2

| blocking of binding of PDE3A to the tethered linker analogue (PDE3A) | inhibition at 0.1 µM (PDE3B; read-out: % inhibition) [%] | inhibition at 0.1 µM (PDE3B; replicate #1, read-out: % inh. #1) [%] | inhibition at 0.1 µM (PDE3B; replicate #2, read-out: % inh. #2) [%] | SMILES | IC50 (PDE3) [nM] | RC50 (the concentration at which it achieved 50% rescue) (HeLa cells [1]) [nM] | PARP cleavage (HeLa cells [2]) | sensitivity of A549 cells upon expression of SLFN12 (A549 cells [3]) | Caspase activity (caspase-sensitive luciferase assay) (HeLa cells [4]) | effect on cell viability (A549 cells [5]) | toxicity in dose-response analysis (NCI-H1734 cells) |
| --- | --- | --- | --- | --- | --- | --- | --- | --- | --- | --- | --- |
| blocked | – | – | – | COc1cc2c(cc1OC)-c1c/c(=N\c3c(C)cc(C)cc3C)n(C)c(=O)n1CC2 [trequinsin, 9,10-dimethoxy-3-methyl-2-(2,4,6-trimethylphenyl)imino-6,7-dihydropyrimido[6,1-a]isoquinolin-4-one] | 0.25 | < 1 | – | – | – | – | – |
| – | 97 | 98 | 97 | CCN(CC)c1ccc(C2=NNC(=O)CC2C)cc1[N+](=O)[O-] (centres unmarked) [DNMDP, 6-(4-(diethylamino)-3-nitrophenyl)-5-methyl-4,5-dihydropyridazin-3(2H)-one] | – | – | detected | sufficient to confer DNMDP sensitivity | detected | did not affect cell viability | specifically toxic |
